The values below come from patent publication US20260356846A1, “STATIN DERIVATIVES AND METHODS OF USING THE SAME” (The General Hospital Corporation, priority 2023, published 2026).

SMILES strings stand for the structures. Where two headings read alike, the source gives them in different places. Bounds are passed on as bounds.

For series [1], the system named is STMN2 (TDP-mut (N352S) STMN2-NLuc SH-SY5Y cells). Kind of series: STMN2 nanoluciferase assay in TDP-43 mutant SH-SY5Y cells (Table A: mut TDP-43; Table B: mut HD Luciferase). It is filed as cell-based, human. Particulars: mutant TDP-43 cell line. How it is done:
(§1) Neuroblastoma cells (ATCC) were cultured in DMEM/F12 (Gibco) supplemented with 10% fetal-bovine serum (Omega) and 1% penicillin-streptomycin (Gibco) at 37 °C with 5% CO2. For knockdown experiments, cells were transfected with SMARTpool ON-TARGETplus siRNA or control siRNA pool (D001810-10) (GE Dharmacon) at a final concentration of 50 nM, for 96 h in two doses (0, 24 h), after complexing with Lipofectamin RNAiMAX (Invitrogen) in Opti-MEM (Gibco) for 10 min.
(§2) WT and TDP-mut (N352S) SH-SY5Y cells were edited using CRISPR-Cas9 to express Nanoluciferase at the C-terminus of both endogenous STMN2 alleles. A single guided RNA targeting STMN2 C-terminus was designed (Benchling webtool) and cloned into pSpCas9-2A-green fluorescent protein (GFP) plasmid (px458-Addgene) using the BbsI restriction site. The sequence for guided RNA targeting STMN2 was: […]. For the repair template, overlapping fragments of 800 bp STMN2 homology arms flanking Nanoluciferase (NLuc, Promega) were generated and ligated into pUC57 backbone. A 42 bp GS-linker was also included 5′ to NLuc to prevent steric hindrance of the reporter to the final STMN2 exon. Fragments were ligated using Gibson Assembly and nucleofected simultaneously with pSpCas9-2A-GFP-gRNA plasmid using the Amaxa Nucleofector (assay A-023). Forty-eight hours following electroporation, cells were collected, and GFP-positive cells sorted and single-cell seeded into 96-well plates using the SH800S Sony cell sorter. Individual clones were expanded and DNA was extracted for PCR amplification of the STMN2 Ex5 genomic locus using primers within NLuc and outside the STMN2 5′ homology arm to confirm presence of the insert. The entire STMN2 coding region and all exon-intron junctions (>500-bp length of each intronic region) were then sequenced to verify the absence of any additional DNA alteration. qPCR analysis was performed with a wild-type isogenic SH-SY5Y cell line that had undergone the mutagenesis attempt but not acquired the insertion mutation during the original screening process.
(§3) TDP-mut STMN2-NLuc SH-SY5Y cells were used in small-molecule screening at ICCB-Longwood. 3000 cells/well were plated in white 384-well plates using a 50 ul sample volume. 24 hours after plating, compounds were added using 100 nl pin transfer. 24 hours later, 25 ul NLuc assay was added to each well according to manufacturer instructions (Promega, Cat #). Plates were shaken for 1 min prior to luminescence readings using EnVision2 machine. DMSO-only and WT STMN2-NLuc cells were included as negative and positive controls respectively on each plate, producing an average Z′score of ~0.7 across the screen. Each library plate was conducted in duplicate, and Z-scores calculated for each compound. For subsequent validation experiments, cell numbers in each well were quantified by hoescht staining at 1 μg/ml for 15 mins at 37C in black, clear bottom plates, prior to imaging at 4× using automated microscopy (ImageXpressMicro). Nuclei were then counted using a custom algorithm, and luciferase assay run as above. Luminescence results were then normalised against cell counts as RLU/cell.
(§4) Each compound was tested in triplicate in log doses ranging 0.01 μM−10 μM. The values are represented in luminescence normalized to the number of cells in the well, wherein darker grey correlates to higher RLU per cell and higher STMN2 protein expression.

For series [2], the system named is STMN2 (WT STMN2-NLuc SH-SY5Y cells). Kind of series: STMN2 nanoluciferase assay in WT SH-SY5Y cells (Table A: WT TDP-32; Table B: WT HD Luciferase). Particulars: WT cell line. The format is cell-based, human. How it is done:
as §1, §2, §3, §4

Where [3] appears, read: Homo sapiens, SH-SY5Y, Table B, read-out: EC50, mut HD Luciferase.
Setting [4] is: Homo sapiens, SH-SY5Y, Table B, Emax.
Where [5] appears, read: Homo sapiens, SH-SY5Y, Table B, read-out: EC50, WT HD Luciferase.
Setting [6] is: Homo sapiens, SH-SY5Y, Table A, read-out: EC50, mut TDP-43.
The mark [7] stands for this setting: Homo sapiens, SH-SY5Y, Table A, read-out: EC50, WT TDP-32.

By EC50 is commonly meant the concentration at which the effect is half-maximal. The term maximal fold induction denotes the ratio of treated to control signal. A high value points to a large rise in signal. `Cc1csc2nc(C3CC3)c(/C=C/[C@@H](O)C[C@@H](O)CC(=O)O)c(-c3ccc(Cl)cc3)c12` [Example I-34, (3R,5S,E)-7-(4-(4-chlorophenyl)-6-cyclopropyl-3-methylthieno[2,3-b]pyridin-5-yl)-3,5-dihydroxyhept-6-enoic acid]: the EC50 is 50 to 100 nM in series [1] (setting [3]) and 100 to 500 nM in series [2] (setting [5]). In series [2] (setting [4]), this compound returned a maximal fold induction of 1.5 to 1.75.

On to `COCc1c(C2CC2)nc(C2CC2)c(/C=C/[C@@H](O)C[C@@H](O)CC(=O)O)c1-c1c(C)cc(F)cc1F` [II-17, (3R,5S,E)-7-(2,6-dicyclopropyl-4-(2,4-difluoro-6-methylphenyl)-5-(methoxymethyl)pyridin-3-yl)-3,5-dihydroxyhept-6-enoic acid], for which the EC50 in series [1] (setting [3]) and in series [2] (setting [5]) was at most 10 nM throughout. The same compound returned a maximal fold induction in series [2] (setting [4]) of 1.5 to 1.75.

Regarding `COCc1c(C2CC2)nc(C2CC2)c(/C=C/[C@@H](O)C[C@@H](O)CC(=O)O)c1-c1ccc(F)cc1C` [II-10, (3R,5S,E)-7-(2,6-dicyclopropyl-4-(4-fluoro-2-methylphenyl)-5-(methoxymethyl)pyridin-3-yl)-3,5-dihydroxyhept-6-enoic acid], the 50% effective concentration (EC50) in series [1] (setting [3]) and in series [2] (setting [5]) was at most 10 nM each time.

`O=C(O)C[C@H](O)C[C@H](O)/C=C/c1c(-c2ccc(F)cc2Cl)cc(C2CC2)nc1C1CCC1` [II-27, (3R,5S,E)-7-(4-(2-chloro-4-fluorophenyl)-2-cyclobutyl-6-cyclopropylpyridin-3-yl)-3,5-dihydroxyhept-6-enoic acid]: the EC50 in series [1] (setting [3]) and in series [2] (setting [5]) was at least 500 nM in each case. For the same compound, the “HD Luciferase (mut, Emax)” value in series [1] (Table B) is “* (means≥1 and <1.25)”. Besides, in series [2] (setting [4]), the maximal fold induction is 1 to 1.25.

For the compound `Cc1cc(F)ccc1-c1cc(C2CC2)nc(C2CC2)c1/C=C/[C@@H](O)C[C@@H](O)CC(=O)O` [II-12, (3R,5S,E)-7-(2,6-dicyclopropyl-4-(4-fluoro-2-methylphenyl)pyridin-3-yl)-3,5-dihydroxyhept-6-enoic acid], the EC50 in series [1] (setting [3]) and in series [2] (setting [5]) was at most 10 nM throughout.

On to `COCc1c(C2CC2)nc(C2CC2)c(/C=C/[C@@H](O)C[C@@H](O)CC(=O)O)c1-c1ccccc1Cl` [II-25, (3R,5S,E)-7-(4-(2-chlorophenyl)-2,6-dicyclopropyl-5-(methoxymethyl)pyridin-3-yl)-3,5-dihydroxyhept-6-enoic acid], for which the EC50 in series [1] (setting [3]) and in series [2] (setting [5]) was 10 to 50 nM throughout.

Regarding `Cc1csc2c(-c3ccc(F)cc3)c(CC[C@H](O)C[C@@H](O)CC(=O)O)c(C3CC3)nc12` [Example I-33, (3R,5S)-7-(5-cyclopropyl-7-(4-fluorophenyl)-3-methylthieno[3,2-b]pyridin-6-yl)-3,5-dihydroxyheptanoic acid], the EC50 in series [1] (setting [3]) and in series [2] (setting [5]) was 100 to 500 nM each time. In addition, in series [1] (Table B), the “HD Luciferase (mut, Emax)” value is “** (means≥1.25 and <1.5)”.

In the case of `COCc1c(C(C)C)nc(C(C)C)c(/C=C/[C@@H](O)C[C@@H](O)CC(=O)O)c1-c1ccc(F)cc1` [Cerivastatin, cerivastatin, reference compound], the EC50 in series [1] (setting [6]) is at most 100 nM; in series [2] (setting [7]), 100 to 500 nM.

Consider `Cc1cc(F)ccc1-c1c(/C=C/[C@@H](O)C[C@@H](O)CC(=O)O)c(C2CC2)nc2c(C)csc12` [Example I-13, (3R,5S,E)-7-(5-cyclopropyl-7-(4-fluoro-2-methylphenyl)-3-methylthieno[3,2-b]pyridin-6-yl)-3,5-dihydroxyhept-6-enoic acid], for which the EC50 in series [1] (setting [3]) and in series [2] (setting [5]) was 10 to 50 nM in each case.

Take `Cc1csc2c(-c3ccc(F)cc3)c(/C=C/[C@@H](O)C[C@@H](O)CC(=O)O)c(C3CC3)nc12` [Example I-1, (3R,5S,E)-7-(5-cyclopropyl-7-(4-fluorophenyl)-3-methylthieno[3,2-b]pyridin-6-yl)-3,5-dihydroxyhept-6-enoic acid]: the EC50 is at most 100 nM in series [1] (setting [6]), at most 10 nM in series [1] (setting [3]), at most 100 nM in series [2] (setting [7]) and 10 to 50 nM in series [2] (setting [5]). This compound also registered a maximal fold induction in series [2] (setting [4]) of 1.5 to 1.75.

As for `O=C(O)C[C@H](O)C[C@H](O)/C=C/c1c(C2CC2)nc2scnc2c1-c1ccc(F)cc1` [Example I-2, (3R,5S,E)-7-(5-cyclopropyl-7-(4-fluorophenyl)thiazolo[5,4-b]pyridin-6-yl)-3,5-dihydroxyhept-6-enoic acid], the EC50 in series [1] (setting [3]) and in series [2] (setting [5]) was at least 500 nM in each case. Moreover, the “HD Luciferase (mut, Emax)” value in series [1] (Table B) is “* (means≥1 and <1.25)”. In series [2] (setting [4]), this compound yielded a maximal fold induction of 1 to 1.25.

Take `Cc1cc2c(-c3ccc(F)cc3)c(/C=C/[C@@H](O)C[C@@H](O)CC(=O)O)c(C3CC3)nc2s1` [Example I-5b, (3R,5S,E)-7-(6-cyclopropyl-4-(4-fluorophenyl)-2-methylthieno[2,3-b]pyridin-5-yl)-3,5-dihydroxyhept-6-enoic acid]: the “HD Luciferase (mut, Emax)” value in series [1] (Table B) was “** (means≥1.25 and <1.5)”. In addition, the EC50 in series [1] (Table B, read-out: EC50, mut HD Luciferase) fell in the range of 50 to 100 nM; in series [2] (Table B, read-out: EC50, WT HD Luciferase), 100 to 500 nM. Further, the “HD Luciferase (WT, Emax)” value in series [2] (Table B, Emax) is “** (means≥1.25 and <1.5)”.

In the case of `Cc1nc2c(-c3ccc(F)cc3)c(/C=C/[C@@H](O)C[C@@H](O)CC(=O)O)c(C3CC3)nc2s1` [Example I-3, (3R,5S,E)-7-(5-cyclopropyl-7-(4-fluorophenyl)-2-methylthiazolo[5,4-b]pyridin-6-yl)-3,5-dihydroxyhept-6-enoic acid], the EC50 is 5000 to 10000 nM in series [1] (setting [6]), at least 500 nM in series [1] (setting [3]), at least 10000 nM in series [2] (setting [7]) and at least 500 nM in series [2] (setting [5]). For the same compound, the “HD Luciferase (mut, Emax)” value in series [1] (Table B) is “* (means≥1 and <1.25)”. Moreover, in series [2] (setting [4]), the maximal fold induction was in the range of 1 to 1.25.
